Results reported in US20250074934A1, “CRYSTAL OF 4’-SUBSTITUTED NUCLEOSIDE, AND PREPARATION METHOD THEREFOR, COMPOSITION THEREOF AND USE THEREOF” (HENAN GENUINE BIOTECH CO., LTD., priority 2022, published 2025).

Key:
HIV = conditions: cited from earlier work; for EC50: read-out: HIV inhibitory activity EC50
[1] = within the tested dose range; read-out: cytotoxicity CC50; cited from earlier work
[2] = stability of crystal forms on storage, drying or heating, checked by XRPD; type: physicochemical
Description: The type XVI crystal was heated to 55° C. in a nitrogen atmosphere and held for 2 to 24 h.
The type XVI crystal and the type XVII crystal were left at 60±5° C. for 5 days, respectively.
The type XVII crystal was left for 5 days under the conditions of 25° C. and 92.5±5% humidity.
The type XVIII crystal was heated to 150° C. or left for 24 h under the conditions of 25° C. and 92.5±5% humidity.
The crystal suffered from a weight loss of 13.2% when heated to 110° C., and a weight loss of 3.5% when further heated to 200° C. Three endothermic signals occurred in the range of 80° C. to 140° C. The type I crystal was heated to 55° C. under nitrogen protection and then cooled to room temperature. The sample was removed and exposed to air to test XRPD.
As the type II crystal was unstable and had been transformed after dying for a short period of time, no further studies were carried out on the type II crystal.
Under the conditions of nitrogen protection, the type IV crystal was heated to 141° C. and then tested for XRPD.
The type V crystal was subjected to the variable-temperature XRPD test.
The type VI crystal was heated to 160° C. under the nitrogen protection.
Under the nitrogen protection, the type VII crystal was heated to 130° C. and then cooled to room temperature. The sample was removed and exposed to the air to test XRPD.
Under the nitrogen protection, the type VIII crystal was heated to 160° C. and then cooled to room temperature. The sample was removed and exposed to the air to test XRPD.
The crystal was heated to 95° C. under nitrogen protection and then cooled to room temperature. The sample was removed and exposed to the air to test XRPD. […] The crystal was heated to 160° C. under the same conditions of nitrogen protection and then cooled to room temperature. The sample was removed and exposed to the air to test XRPD.
The type X crystal was subjected to the variable-temperature XRPD test.
The samples open dried at room temperature were characterized by TGA/DSC.
Meanwhile, the type XIII crystal was coated to test XRPD, and new type XIV crystal could be observed.

[3] = LC-MS detection of chemical changes in the crystal; type: physicochemical; conditions: obtained from type XVI crystal left at 60° C. for 5 days
Description: The type XVI crystal was left at 60° C. for 5 days to obtain a type XVIII crystal, which was an anhydrous crystal.

[4] = heated to 160° C. under nitrogen protection

C#C[C@]1(CO)O[C@@H](n2cnc3c(N)nc(F)nc32)C[C@@H]1O [Compound 1]
EC50 (HIV): 0.05 nM | increase of HIV inhibitory activity by introduction of 2-fluorine (HIV; versus 4′-ethynyl-2′-deoxyadenosine (EdA)): 2200 times

C#C[C@]1(CO)O[C@@H](n2cnc3c(N)ncnc32)C[C@@H]1O [EdA, 4′-ethynyl-2′-deoxyadenosine]
EC50 (HIV): 11 nM

C#C[C@]1(CO)O[C@@H](n2cnc3c(N)nc(F)nc32)[C@@H](F)[C@@H]1O [compound (3), (2R,3R,4S,5R)-5-(6-amino-2-fluoro-9H-purin-9-yl)-2-ethynyl-4-fluoro-2-(hydroxymethyl)tetrahydrofuran-3-ol]
EC50 (HIV): 0.9 nM | CC50 [1]: > 8000 nM

C#C[C@]1(CO)O[C@@H](n2cnc3c(N)nc(F)nc32)[C@@H](F)[C@@H]1O [type I crystal]
XRPD after heating ([2]; heated to 55° C. under nitrogen, cooled to room temperature, exposed to air): diffraction peak intensity of the sample was somewhat decreased | XRPD after heating ([2]; heated to 100° C. under nitrogen protection): transformed into an amorphous crystal

C#C[C@]1(CO)O[C@@H](n2cnc3c(N)nc(F)nc32)[C@@H](F)[C@@H]1O [type II crystal]
crystal form after vacuum drying ([2]; vacuum drying at room temperature for half an hour): transformed into a type III crystal

C#C[C@]1(CO)O[C@@H](n2cnc3c(N)nc(F)nc32)[C@@H](F)[C@@H]1O [type IV crystal]
stability by TGA ([2]; 120° C.): unstable | XRPD of dried crystal after closed storage ([2]; dried crystal left closed at room temperature for about 5 days): increased relative intensity of the diffraction peaks and increased number of diffraction peaks | XRPD after heating ([2]; heated to 141° C. under nitrogen protection): transformed into a stable type III crystal | XRPD after vacuum drying ([2]; vacuum dried at room temperature for 15 min): decreased relative intensity of the diffraction peaks

C#C[C@]1(CO)O[C@@H](n2cnc3c(N)nc(F)nc32)[C@@H](F)[C@@H]1O [type IX crystal]
XRPD after heating ([2]; heated to 95° C. under nitrogen, cooled to room temperature, exposed to air): degree of crystallinity was further decreased | XRPD after heating [2, 4]: crystal form had been transformed | crystallinity after closed storage ([2]; left closed at room temperature for about 3 days): reduced degree of crystallinity

C#C[C@]1(CO)O[C@@H](n2cnc3c(N)nc(F)nc32)[C@@H](F)[C@@H]1O [type V crystal]
variable-temperature XRPD ([2]; further heated to 154° C.): transformed into another crystal | variable-temperature XRPD ([2]; heated to 90° C. and 130° C. under nitrogen): substantially transformed into an amorphous crystal | variable-temperature XRPD, nitrogen purge ([2]; purged with nitrogen for about 20 min): significant decrease in degree of crystallinity

C#C[C@]1(CO)O[C@@H](n2cnc3c(N)nc(F)nc32)[C@@H](F)[C@@H]1O [type VI crystal]
XRPD after heating [2, 4]: crystal form was transformed

C#C[C@]1(CO)O[C@@H](n2cnc3c(N)nc(F)nc32)[C@@H](F)[C@@H]1O [type VII crystal]
XRPD after heating ([2]; heated to 130° C. under nitrogen, cooled to room temperature, exposed to air): crystal form was transformed

C#C[C@]1(CO)O[C@@H](n2cnc3c(N)nc(F)nc32)[C@@H](F)[C@@H]1O [type X crystal]
variable-temperature XRPD ([2]; further heated to 130° C.): diffraction peak intensity was significantly reduced | variable-temperature XRPD ([2]; further heated to 145° C.): crystal form was transformed | variable-temperature XRPD ([2]; heated to 120° C. while purging with nitrogen): position of the diffraction peak shifted

C#C[C@]1(CO)O[C@@H](n2cnc3c(N)nc(F)nc32)[C@@H](F)[C@@H]1O [type XII crystal]
crystal form after vacuum drying ([2]; vacuum drying at room temperature for 10 min): transformed into an amorphous crystal

C#C[C@]1(CO)O[C@@H](n2cnc3c(N)nc(F)nc32)[C@@H](F)[C@@H]1O [type XIII crystal]
crystal form in solvent environment ([2]; left in a solvent environment at room temperature): transformed into the type XIV crystal | crystal form after open drying ([2]; open dried at room temperature for about 2 h): crystal form was transformed

C#C[C@]1(CO)O[C@@H](n2cnc3c(N)nc(F)nc32)[C@@H](F)[C@@H]1O [type XIV crystal]
crystal form after removal from solvent ([2]; removed from the solvent environment): transformed into the type XIII crystal

C#C[C@]1(CO)O[C@@H](n2cnc3c(N)nc(F)nc32)[C@@H](F)[C@@H]1O [type XV crystal]
crystal form after heating ([2]; heated to 120° C.): crystal form was transformed

C#C[C@]1(CO)O[C@@H](n2cnc3c(N)nc(F)nc32)[C@@H](F)[C@@H]1O [type XVI crystal]
crystal form by XRPD after heating ([2]; heated to 55° C. in nitrogen atmosphere, held 2 to 24 h): type XVII crystal was also obtained | crystal form by XRPD after storage ([2]; left at 60±5° C. for 5 days): transformed into the type XVIII crystals | crystal form after vacuum drying ([2]; vacuum drying at room temperature for 24 h): transformed into a monohydrate crystal form—type XVII crystal

C#C[C@]1(CO)O[C@@H](n2cnc3c(N)nc(F)nc32)[C@@H](F)[C@@H]1O [type XVII crystal]
crystal form after drying ([2]; dried at 90° C. for 1 to 24 h): obtain the type XVIII crystal | crystal form by XRPD after storage ([2]; left for 5 days at 25° C. and 92.5±5% humidity): type XVI crystal was obtained

C#C[C@]1(CO)O[C@@H](n2cnc3c(N)nc(F)nc32)[C@@H](F)[C@@H]1O [type XVIII crystal]
crystal form by XRPD after heating ([2]; heated to 150° C.): crystal form did not change | crystal form by XRPD after storage ([2]; left for 24 h at 25° C. and 92.5±5% humidity): crystal form did not change | chemical changes by LC-MS [3]: did not undergo chemical changes
